From ChEMBL document CHEMBL1201862, “PubChem BioAssay data set” (2004)
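48-hour exposure; five concentrations; linearly interpolated endpoints. Here, GI50 denotes the concentration required for 50% inhibition of growth.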 Active and inactive are the calls of the source. Cut-off read from the data, not from the text of the source: active = GI50 up to about 1.1 µM and inactive = higher.

Tests used:
Experiment in all cases: NCI-60 cell line screen, 48 h
[1] = test system: 786-0
[2] = test system: A498
[3] = test system: BT-549
[4] = test system: COLO 205
[5] = test system: HCT-116
[6] = test system: HL-60
[7] = test system: HOP-62
[8] = test system: Hs-578T
[9] = test system: IGROV-1
[10] = test system: LOX IMVI
[11] = test system: M14
[12] = test system: MDA-MB-435
[13] = test system: MOLT-4
[14] = test system: NCI/ADR-RES
[15] = test system: OVCAR-5
[16] = test system: PC-3
[17] = test system: SF-295
[18] = test system: SNB-19
[19] = test system: T47D

| Compound | GI50 [1] | GI50 [2] | GI50 [3] | GI50 [4] | GI50 [5] | GI50 [6] | GI50 [7] | GI50 [8] | GI50 [9] | GI50 [10] | GI50 [11] | GI50 [12] | GI50 [13] | GI50 [14] | GI50 [15] | GI50 [16] | GI50 [17] | GI50 [18] | GI50 [19] |
| --- | --- | --- | --- | --- | --- | --- | --- | --- | --- | --- | --- | --- | --- | --- | --- | --- | --- | --- | --- |
| O=S(=O)(c1cccc(C(F)(F)F)c1)N1c2ccccc2-n2cccc2C1c1cccnc1 (stereo unspecified) | > 40.6 µM (inactive) | 23.3 µM (inactive) | 9.29 µM (inactive) | 16.5 µM (inactive) | 18.8 µM (inactive) | 1.1 µM (active) | > 43.6 µM (inactive) | > 47 µM (inactive) | 40.6 µM (inactive) | 35.5 µM (inactive) | 16.2 µM (inactive) | 6.3 µM (inactive) | 4.18 µM (inactive) | 5.19 µM (inactive) | > 50.5 µM (inactive) | 10.7 µM (inactive) | 71.8 µM (inactive) | 32.6 µM (inactive) | 7.03 µM (inactive) |
| OC(CC(CC(O)(C(F)(F)Cl)C(F)(F)Cl)=NNc1ccccc1)(C(F)(F)Cl)C(F)(F)Cl | 4.54 µM (inactive) | 2.54 µM (inactive) | 1.94 µM (inactive) | 1.91 µM (inactive) | 1.98 µM (inactive) | > 10 µM (inactive) | 3.43 µM (inactive) | 2.45 µM (inactive) | 5.62 µM (inactive) | 2.94 µM (inactive) | 4.26 µM (inactive) | 3.57 µM (inactive) | > 10 µM (inactive) | 4.05 µM (inactive) | 3.66 µM (inactive) | 1.35 µM (inactive) | 2.91 µM (inactive) | 4.01 µM (inactive) | 4.11 µM (inactive) |
| CC(C)Oc1c(C2(c3ccccc3)SCCCS2)c(=O)c1=O | > 100 µM (inactive) | > 100 µM (inactive) | > 100 µM (inactive) | > 100 µM (inactive) | > 100 µM (inactive) | > 100 µM (inactive) | > 100 µM (inactive) | 84.7 µM (inactive) | > 100 µM (inactive) | > 100 µM (inactive) | > 100 µM (inactive) | > 100 µM (inactive) | > 100 µM (inactive) | > 100 µM (inactive) | > 100 µM (inactive) | > 100 µM (inactive) | > 100 µM (inactive) | > 100 µM (inactive) | > 100 µM (inactive) |
| O=C(O)c1ccc(N2C=[N+]3C(=Nc4ccccc43)C2)cc1 | > 100 µM (inactive) | > 100 µM (inactive) | > 100 µM (inactive) | > 100 µM (inactive) | > 100 µM (inactive) | > 100 µM (inactive) | > 100 µM (inactive) | > 100 µM (inactive) | > 100 µM (inactive) | > 100 µM (inactive) | > 100 µM (inactive) | > 100 µM (inactive) |  | > 100 µM (inactive) | > 100 µM (inactive) | > 100 µM (inactive) | > 100 µM (inactive) | > 100 µM (inactive) | > 100 µM (inactive) |
| Cc1c(N)nc([C@H](CC(N)=O)NC[C@H](N)C(N)=O)nc1C(=O)N[C@H](C(=O)N[C@H](C)[C@@H](O)CC(=O)N[C@H](C(=O)NC(O[C@@H]1O[C@@H](C)[C@@H](N)[C@@H](O)[C@H]1O)C(O)c1nc(-c2nc(C(=O)NCCC[S+](C)C)cs2)cs1)[C@@H](C)O)[C@H](O[C@@H]1O[C@@H](CO)[C@@H](O)[C@H](O)[C@@H]1O[C@H]1O[C@H](CO)[C@@H](O)[C@H](OC(N)=O)[C@@H]1O)c1c[nH]cn1 (stereo partly specified) | 13.9 µM (inactive) | 67.1 µM (inactive) | > 100 µM (inactive) | > 100 µM (inactive) | 15.1 µM (inactive) | > 100 µM (inactive) | 5.18 µM (inactive) | 6.17 µM (inactive) | 33.3 µM (inactive) | 15.2 µM (inactive) | > 100 µM (inactive) | > 100 µM (inactive) | 38.6 µM (inactive) | 33.3 µM (inactive) | > 100 µM (inactive) | 65 µM (inactive) | 5.46 µM (inactive) | > 100 µM (inactive) | > 100 µM (inactive) |
| O=[N+]([O-])c1ccc(-n2nc3ccc4c(no[n+]4[O-])c3[n+]2[O-])c([N+](=O)[O-])c1 | 2.68 µM (inactive) | 5.45 µM (inactive) | 2.67 µM (inactive) | 1.54 µM (inactive) | 1.91 µM (inactive) | 1.95 µM (inactive) | 3.77 µM (inactive) | 2.81 µM (inactive) | 1.71 µM (inactive) | 1.77 µM (inactive) | 1.59 µM (inactive) | 2.71 µM (inactive) | 1.95 µM (inactive) | 3.16 µM (inactive) | 6.41 µM (inactive) | 8 µM (inactive) | 4.53 µM (inactive) | 6.24 µM (inactive) | 2.49 µM (inactive) |
| C/C(=N\NC(N)=S)c1nc2cccnc2[nH]1 | 51.8 µM (inactive) | > 100 µM (inactive) | 24.9 µM (inactive) | 38.8 µM (inactive) | 54 µM (inactive) | 32.6 µM (inactive) | 67.3 µM (inactive) | > 100 µM (inactive) | 82 µM (inactive) | 73.5 µM (inactive) | 63.1 µM (inactive) | 52.4 µM (inactive) | 34.8 µM (inactive) | 38.5 µM (inactive) | 47.1 µM (inactive) | 81.3 µM (inactive) | 84.9 µM (inactive) | > 76.7 µM (inactive) | 45.1 µM (inactive) |
| COc1cc2c(cc1O)Cc1c-2[n+](C)cc2cc(OC)c(OC)cc12 | 2.87 µM (inactive) | > 64.1 µM (inactive) | 8.11 µM (inactive) | > 74.3 µM (inactive) | 15.3 µM (inactive) | 2.75 µM (inactive) | 6.61 µM (inactive) | 60 µM (inactive) | 52.7 µM (inactive) | 5.94 µM (inactive) | 7.19 µM (inactive) | 36 µM (inactive) | 0.653 µM (active) | 6.79 µM (inactive) | > 100 µM (inactive) | 28.8 µM (inactive) | 7.89 µM (inactive) | 1.64 µM (inactive) | 19.1 µM (inactive) |
| C=CCC1(O)c2cccc(O)c2C(=O)c2cccc(O)c21 (stereo unspecified) | 19.3 µM (inactive) | 13.3 µM (inactive) | 16.8 µM (inactive) |  | 14.4 µM (inactive) | 11.7 µM (inactive) | 21.4 µM (inactive) | 14.9 µM (inactive) | 23.6 µM (inactive) | 16.3 µM (inactive) | 16.2 µM (inactive) | 9.38 µM (inactive) | 11.3 µM (inactive) | 11.2 µM (inactive) | 22.5 µM (inactive) | 16.9 µM (inactive) | 9.35 µM (inactive) |  | 4.12 µM (inactive) |
| CCOC(=O)NN(C(=O)OCC)C(C(=O)c1ccccc1)N(NC(=O)OCC)C(=O)OCC | > 100 µM (inactive) | > 100 µM (inactive) | > 100 µM (inactive) | > 100 µM (inactive) | > 100 µM (inactive) | > 100 µM (inactive) | > 100 µM (inactive) | > 100 µM (inactive) | > 100 µM (inactive) | > 100 µM (inactive) | > 100 µM (inactive) | > 100 µM (inactive) | > 100 µM (inactive) | > 100 µM (inactive) | > 100 µM (inactive) | > 100 µM (inactive) | > 100 µM (inactive) | > 100 µM (inactive) | > 100 µM (inactive) |
| CC(=O)OCC1OC(n2c(N)c(C#N)c(-c3ccccc3)c(C#N)c2=S)C(OC(C)=O)C(OC(C)=O)C1OC(C)=O (stereo unspecified) | 21.8 µM (inactive) | > 64.4 µM (inactive) | 42.6 µM (inactive) | > 100 µM (inactive) | > 100 µM (inactive) | > 100 µM (inactive) | 11.6 µM (inactive) | 14.6 µM (inactive) | > 100 µM (inactive) | > 100 µM (inactive) | > 100 µM (inactive) | > 100 µM (inactive) | > 100 µM (inactive) | > 100 µM (inactive) | > 100 µM (inactive) | > 100 µM (inactive) | 30.8 µM (inactive) | 19 µM (inactive) | > 81.1 µM (inactive) |
| CC(C)(C)OC(=O)NC1CCCCC1NC(=O)C(=O)NC1CCCCC1NC(=O)OC(C)(C)C (stereo unspecified) | 34.7 µM (inactive) | 32.7 µM (inactive) | 53.5 µM (inactive) | > 100 µM (inactive) | 78.2 µM (inactive) | > 100 µM (inactive) | 19.3 µM (inactive) | 16.9 µM (inactive) | > 100 µM (inactive) | > 100 µM (inactive) | > 100 µM (inactive) | > 100 µM (inactive) | > 100 µM (inactive) | > 100 µM (inactive) | > 100 µM (inactive) | > 100 µM (inactive) | 29.1 µM (inactive) | 28.4 µM (inactive) | > 100 µM (inactive) |
| COc1ccccc1/[N+]([O-])=C/c1ccccc1OC(=S)S | 26.5 µM (inactive) | 32.4 µM (inactive) | 25.9 µM (inactive) | 27.4 µM (inactive) | 42 µM (inactive) | 25.8 µM (inactive) |  | 73.6 µM (inactive) | 19.6 µM (inactive) | 28.1 µM (inactive) | 41.1 µM (inactive) | 16.7 µM (inactive) | 27.5 µM (inactive) | 30.6 µM (inactive) | 96.2 µM (inactive) | 34 µM (inactive) | 32.2 µM (inactive) | 99.3 µM (inactive) | 17.6 µM (inactive) |
| Cc1c(/N=N/c2ccccc2)c(-c2ccccc2)n(C2OC(CO)C(O)C(O)C2O)c(=S)c1C#N (stereo unspecified) | 5.14 µM (inactive) | 14.4 µM (inactive) | 5.4 µM (inactive) | 5.56 µM (inactive) |  | 3.66 µM (inactive) | 7.14 µM (inactive) | 2.86 µM (inactive) | 5.75 µM (inactive) | 2.62 µM (inactive) | 6.5 µM (inactive) | 4.98 µM (inactive) | 1.95 µM (inactive) | 17.3 µM (inactive) | 13.8 µM (inactive) | 2.99 µM (inactive) | 6.71 µM (inactive) | 7.64 µM (inactive) | 0.245 µM (active) |
